Source: PubChem BioAssay AID274 (DTP/NCI, 2004)
“And” between values parts separate entries of the source, which are not always exact repeats. Equal entries are not always repeated. Toxic doses and inconclusive results are not listed.

Test system: BDF1 mice, Lewis lung carcinoma iv, survival T/C
Assay: NCI In Vivo Anticancer Drug Screen. Data for tumor model Lewis Lung Carcinoma (intravenous) in B6D2F1 (BDF1) mice
Conditions: endpoint: median survival time, higher = longer survival
Method: The antitumor activity of compounds was measured in mice bearing transplantable tumors. Survival or tumor size were measured and the results are expressed as the measurement made in the treated group (T) divided by the measurement made in the vehicle treated control group (C). The tumor model used in this assay is Lewis Lung Carcinoma (intravenous) in B6D2F1 (BDF1) mice

[1] = dose: 12.5 mg/kg/injection, schedule: Q01DX009 (ip), vehicle: saline with Tween-80
[2] = dose: 25.0 mg/kg/injection, schedule: Q01DX009 (ip), vehicle: saline with Tween-80
[3] = dose: 6.25 mg/kg/injection, schedule: Q01DX009 (ip), vehicle: saline
[4] = dose: 12.5 mg/kg/injection, schedule: Q01DX009 (ip), vehicle: saline
[5] = dose: 50.0 mg/kg/injection, schedule: Q01DX009 (ip), vehicle: saline with Tween-80
[6] = dose: 100.0 mg/kg/injection, schedule: Q01DX009 (ip), vehicle: saline with Tween-80
[7] = dose: 200.0 mg/kg/injection, schedule: Q01DX009 (ip), vehicle: saline with Tween-80
[8] = dose: 25.0 mg/kg/injection, schedule: Q01DX009 (ip), vehicle: saline
[9] = dose: 50.0 mg/kg/injection, schedule: Q01DX009 (ip), vehicle: saline
[10] = dose: 100.0 mg/kg/injection, schedule: Q01DX009 (ip), vehicle: saline
[11] = dose: 25.0 mg/kg/injection, schedule: Q01DX009 (ip), vehicle: water
[12] = dose: 50.0 mg/kg/injection, schedule: Q01DX009 (ip), vehicle: water
[13] = dose: 100.0 mg/kg/injection, schedule: Q01DX009 (ip), vehicle: water

With C[C@]12CC[C@H]3[C@@H](CCC4=C[C@@H](OC5OCC(OC6OC(CO)C(O)C(O)C6O)C(O)C5O)CC[C@@]43C=O)[C@@]1(O)CCC2C1=CC(=O)OC1 (stereo partly drawn) the T/C (dose: 0.16 mg/kg/injection, schedule: Q01DX009 (ip), vehicle: Klucel (hydroxypropylcellulose) (HPC)) was 99 % of control, the T/C (dose: 0.31 mg/kg/injection, schedule: Q01DX009 (ip), vehicle: Klucel (hydroxypropylcellulose) (HPC)) was 100 % of control and the T/C (dose: 0.63 mg/kg/injection, schedule: Q01DX009 (ip), vehicle: Klucel (hydroxypropylcellulose) (HPC)) was 102 % of control. The T/C (dose: 1.25 mg/kg/injection, schedule: Q01DX009 (ip), vehicle: Klucel (hydroxypropylcellulose) (HPC)) was 99 % of control, the T/C (dose: 2.5 mg/kg/injection, schedule: Q01DX009 (ip), vehicle: Klucel (hydroxypropylcellulose) (HPC)) was 122 % of control and the T/C (dose: 5.0 mg/kg/injection, schedule: Q01DX009 (ip), vehicle: Klucel (hydroxypropylcellulose) (HPC)) was 122 % of control.

For CN=C(N)N/N=C(\C)c1ccc2oc3ccc(/C(C)=N/NC(N)=NC)cc3c2c1, the T/C [1] was 98 % of control and the T/C [2] was 118 % of control.

In the case of O=C1OC(C(O)CO)C(O)=C1O (stereo not drawn), the T/C (dose: 200.0 mg/kg/injection, schedule: Q01DX009 (ip), vehicle: saline) is reported as 112 % of control and the T/C (dose: 400.0 mg/kg/injection, schedule: Q01DX009 (ip), vehicle: saline) is reported as 100 % of control.

NC(Cc1cc([N+](=O)[O-])ccc1CN(CCCl)CCCl)C(=O)O (stereo not drawn) was tested, and the T/C (dose: 3.24 mg/kg/injection, schedule: Q04DX003 (ip), vehicle: Klucel (hydroxypropylcellulose) (HPC)) was 102 % of control, the T/C (dose: 5.4 mg/kg/injection, schedule: Q04DX003 (ip), vehicle: Klucel (hydroxypropylcellulose) (HPC)) was 115 % of control and the T/C (dose: 15.0 mg/kg/injection, schedule: Q04DX003 (ip), vehicle: Klucel (hydroxypropylcellulose) (HPC)) was 102 % of control.

In the case of O=NN(CCCl)C(=O)NCCCl, the T/C (dose: 1.5 mg/kg/injection, schedule: Q01DX009 (ip), vehicle: Klucel (hydroxypropylcellulose) (HPC)) is reported as 122 % of control, the T/C (dose: 3.0 mg/kg/injection, schedule: Q01DX009 (ip), vehicle: Klucel (hydroxypropylcellulose) (HPC)) is reported as 305 % of control and the T/C (dose: 6.0 mg/kg/injection, schedule: Q01DX009 (ip), vehicle: Klucel (hydroxypropylcellulose) (HPC)) is reported as 163 % of control. The T/C (dose: 10.0 mg/kg/injection, schedule: Q01DX001 (ip), vehicle: saline + alcohol) was 116 % of control, the T/C (dose: 12.0 mg/kg/injection, schedule: Q01DX009 (ip), vehicle: Klucel (hydroxypropylcellulose) (HPC)) was 304 % of control and the T/C (dose: 20.0 mg/kg/injection, schedule: Q01DX001 (ip), vehicle: saline + alcohol) was 124 % of control. For the same compound, the T/C (dose: 20.48 mg/kg/injection, schedule: Q01DX001 (iv), vehicle: saline + alcohol) was 215 % of control, the T/C (dose: 25.6 mg/kg/injection, schedule: Q01DX001 (iv), vehicle: saline + alcohol) was 268 % of control and the T/C (dose: 32.0 mg/kg/injection, schedule: Q01DX001 (iv), vehicle: saline + alcohol) was 267 % of control. The T/C (dose: 40.0 mg/kg/injection, schedule: Q01DX001 (ip), vehicle: saline + alcohol) was 109 % of control, the T/C (dose: 40.0 mg/kg/injection, schedule: Q01DX001 (iv), vehicle: saline + alcohol) was 268 % of control and the T/C (dose: 50.0 mg/kg/injection, schedule: Q01DX001 (ip), vehicle: saline + alcohol) was 117 % of control. The T/C (dose: 50.0 mg/kg/injection, schedule: Q01DX001 (iv), vehicle: saline + alcohol) was 268 % of control and the T/C (dose: 62.5 mg/kg/injection, schedule: Q01DX001 (iv), vehicle: saline + alcohol) was 268 % of control.

For [Cl][Sn]([c]1ccccc1)[c]1ccccc1, the T/C (dose: 3.12 mg/kg/injection, schedule: Q01DX009 (ip), vehicle: saline) was 104 % of control, the T/C [3] was 97 % of control and the T/C [4] was 98 % of control.

For CN(Cc1cnc2nc(N)nc(N)c2n1)c1c(Cl)cc(C(=O)NC(CCC(=O)O)C(=O)O)cc1Cl (stereo not drawn), the T/C (dose: 12.5 mg/kg/injection, schedule: Q01DX009 (ip), vehicle: Klucel (hydroxypropylcellulose) (HPC)) was 96 % of control, the T/C (dose: 25.0 mg/kg/injection, schedule: Q01DX009 (ip), vehicle: Klucel (hydroxypropylcellulose) (HPC)) was 93 % of control and the T/C (dose: 50.0 mg/kg/injection, schedule: Q01DX009 (ip), vehicle: Klucel (hydroxypropylcellulose) (HPC)) was 98 % of control.

In the case of ClC1(c2ccccc2)c2ccc(Br)cc2-c2cc(Br)ccc21, the T/C [2] is reported as 102 % of control, the T/C [5] is reported as 105 % of control and the T/C [6] is reported as 110 % of control.

For ClCc1ccc2ccccc2n1, the T/C [2] was 100 % of control, the T/C [5] was 92 % of control and the T/C [6] was 119 % of control.

With Nc1ccc(Cl)cc1N the T/C [1] was 92 % of control, the T/C [2] was 93 % of control and the T/C [5] was 99 % of control. The T/C [6] was 104 % of control and the T/C [7] was 102 % of control.

In the case of O=C(NCCCCCCCCCCNC(=O)N1CC1)N1CC1, the T/C (dose: 0.75 mg/kg/injection, schedule: Q01DX009 (ip), vehicle: saline) is reported as 117 % of control, the T/C (dose: 1.5 mg/kg/injection, schedule: Q01DX009 (ip), vehicle: saline) is reported as 110 % of control and the T/C (dose: 3.0 mg/kg/injection, schedule: Q01DX009 (ip), vehicle: saline) is reported as 122 % of control. For the same compound, the T/C (dose: 6.0 mg/kg/injection, schedule: Q01DX009 (ip), vehicle: saline) was 117 % of control.

In the case of O=C(O)C(CSC(c1ccccc1)(c1ccccc1)c1ccccc1)N=Cc1cccs1 (stereo not drawn), the T/C [4] is reported as 107 % of control, the T/C [8] is reported as 102 % of control and the T/C [9] is reported as 101 % of control.

CCc1nc(N)nc(N)c1-c1ccc(Cl)c(Cl)c1.[Cl][Pd][Cl] was tested, and the T/C [4] was 114 % of control.

CCCCOCN(COCCCC)C(C)Cc1ccccc1 (stereo not drawn) was tested, and the T/C [1] was 102 % of control, the T/C [2] was 96 % of control and the T/C [5] was 95 % of control. The T/C [6] was 100 % of control and the T/C [7] was 101 % of control.

For Nc1ncnc2c1cnn2Cc1ccc(Cl)cc1, the T/C [8] was 112 % of control, the T/C [9] was 98 % of control and the T/C [6] was 158 % of control. For the same compound, the T/C [10] was 98 % of control and the T/C [7] was 109 % of control.

In the case of O=C(O)CC(NC(=O)CP(=O)(O)O)C(=O)O.[NH-]C1CCCCC1[NH-].[Pt+2] (stereo not drawn), the T/C (dose: 0.4 mg/kg/injection, schedule: Q01DX009 (ip), vehicle: dextrose) is reported as 90 % of control, the T/C (dose: 0.8 mg/kg/injection, schedule: Q01DX009 (ip), vehicle: dextrose) is reported as 110 % of control and the T/C (dose: 1.6 mg/kg/injection, schedule: Q01DX009 (ip), vehicle: dextrose) is reported as 99 % of control. The T/C (dose: 3.0 mg/kg/injection, schedule: Q01DX009 (ip), vehicle: dextrose) was 108 % of control, the T/C (dose: 3.2 mg/kg/injection, schedule: Q01DX009 (ip), vehicle: dextrose) was 103 % of control and the T/C (dose: 6.25 mg/kg/injection, schedule: Q01DX009 (ip), vehicle: dextrose) was 110 % of control.

C1OC1CO[C@@H]1CO[C@H]2[C@@H]1OC[C@H]2OCC1CO1 (stereo partly drawn) was tested, and the T/C [4] was 113 % of control, the T/C [8] was 100 % of control and the T/C [9] was 123 % of control. The T/C [10] was 177 % of control.

For COCC(O)Cn1ccnc1[N+](=O)[O-] (stereo not drawn), the T/C (dose: 12.5 mg/kg/injection, schedule: Q01DX009 (ip), vehicle: water) was 96 % of control, the T/C [11] was 92 % of control and the T/C [12] was 96 % of control. For the same compound, the T/C [13] was 100 % of control, the T/C (dose: 200.0 mg/kg/injection, schedule: Q01DX009 (ip), vehicle: water) was 92 % of control and the T/C (dose: 400.0 mg/kg/injection, schedule: Q01DX009 (ip), vehicle: water) was 96 % of control.

In the case of COC1NC(=O)NC(=O)C1=[N+]=[N-] (stereo not drawn), the T/C (dose: 2.0 mg/kg/injection, schedule: Q01DX009 (ip), vehicle: water) is reported as 96 % of control, the T/C (dose: 4.0 mg/kg/injection, schedule: Q01DX009 (ip), vehicle: water) is reported as 98 % of control and the T/C (dose: 8.0 mg/kg/injection, schedule: Q01DX009 (ip), vehicle: water) is reported as 100 % of control.

With O=C(O)CC(=O)O.[NH-]CC[NH-].[Pt+2] the T/C [3] was 111 % of control and the T/C [8] was 156 % of control.

With [Cl][Mn][Cl] the T/C (dose: 1.0 mg/kg/injection, schedule: Q01DX009 (ip), vehicle: saline) was 109 % of control, the T/C (dose: 2.0 mg/kg/injection, schedule: Q01DX009 (ip), vehicle: saline) was 99 % of control and the T/C (dose: 4.0 mg/kg/injection, schedule: Q01DX009 (ip), vehicle: saline) was 105 % of control and 90 % of control. For the same compound, the T/C (dose: 8.0 mg/kg/injection, schedule: Q01DX009 (ip), vehicle: saline) was 101 % of control and 121 % of control, the T/C (dose: 16.0 mg/kg/injection, schedule: Q01DX009 (ip), vehicle: saline) was 91 % of control and 101 % of control and the T/C (dose: 32.0 mg/kg/injection, schedule: Q01DX009 (ip), vehicle: saline) was 94 % of control and 98 % of control. For the same compound, the T/C (dose: 64.0 mg/kg/injection, schedule: Q01DX009 (ip), vehicle: saline) was 96 % of control and 108 % of control.

With C/C=C/C1=CC(=O)C(O)C1O (stereo not drawn) the T/C [11] was 103 % of control, the T/C [12] was 99 % of control and the T/C [13] was 101 % of control.
